Test results taken from patent US20220127258A1, “AROMATIC RING OR HETEROAROMATIC RING COMPOUNDS, PREPARATION METHOD THEREFOR AND MEDICAL USE THEREOF” (The National Institutes of Pharmaceutical R&D Co., Ltd., priority 2019, published 2022).
Like-named read-outs stand apart in the source and are kept apart here.

How the values were obtained:
[1] = Visual inspection of solubility of test sample in extracellular fluid; type: physicochemical; conditions: 0.3 μM to 30 μM solutions in extracellular fluid pH 7.4, from DMSO stock
Protocol: Extracellular fluid: 140 mM NaCl, 3.5 mM KCl, 1 mM MgCl2, 2 mM CaCl2, 10 mM glucose, 10 mM HEPES, 1.25 mM NaH2PO4, pH=7.4 (adjusted by NaOH). The stock solution of the compound of Example 8 of the present invention (30.26 mM solution in DMSO) was successively diluted with 10 mL of extracellular fluid to obtain 0.3 μM, 1 μM, 3 μM, […], and 30 μM solutions. […] 10 mg of Cisapride was dissolved in 2066.29 μL of dimethyl sulfoxide (DMSO) to obtain a 10 mM stock solution. The Cisapride stock solution was successively diluted with dimethyl sulfoxide (DMSO) to obtain a total of 4 concentrations of 1 μM, 10 μM, 100 μM and 1 mM. Before the test, 10 μL of the diluent at each concentration was added to 10 mL of extracellular fluid to ensure that the DMSO concentration was 0.1%. The final working concentration of Cisapride was 1 nM, 10 nM, 100 nM and 1 μM.

[2] = Plasma and liver concentration of the compound after 4 days of administration in the cholestasis rat induced by ANIT; type: in vivo, SD rats; conditions: for concentration at 2 h / concentration at 4 h / Kp at 2 h / Kp at 4 h: SD, oral; for Kp at 2 h / Kp at 4 h: liver/plasma; for concentration at 4 h / Kp at 4 h / Liver concentration of the compound: 4 h
Protocol: Sample formulation: The compound of the present invention was added to DMSO, and dissolved completely by ultrasound. 0.5% CMC-Na was added to constant volume (DMSO: 0.5% CMC-Na=1:99), and the solution was homogenized by ultrasound for later use. After 3 to 5 days of acclimation, the animals were divided into 20 groups according to body weight: normal group, model group, Example 8 (3 mg/kg/d, 10 mg/kg/d) group, Example 11 (3 mg/kg/d, 10 mg/kg/d) group, Example 12 (3 mg/kg/d, 10 mg/kg/d) group, Example 14 (3 mg/kg/d, 10 mg/kg/d) group, Example 20 (3 mg/kg/d, 10 mg/kg/d) group, Example 22 (3 mg/kg/d, 10 mg/kg/d) group, Example 26 (3 mg/kg/d, 10 mg/kg/d) group, Example 28 (3 mg/kg/d, 10 mg/kg/d) group, and Example 29 (3 mg/kg/d, 10 mg/kg/d) group, with 10 rats for each group. Intragastric administration was conducted with an administration volume of 10 mL/kg, once a day, for a total of 4 days. On Day 2, ANIT (1-naphthyl isothiocyanate, Macklin, purity: 98%, item number: N814658, CAS number: 551-06-4, specification: 5 g/bottle, storage conditions: 2 to 8 degrees, batch number: C10116101) with a dose of 50 mg/kg and an administration volume of 5 mL/kg was administered intragastrically once to each animal (except for animals in the normal group) 4 hours after the administration. The animals were fasted on Day 4 morning. The animals were anesthetized by isoflurane inhalation using a small animal anesthesia machine. Blood was collected from the venous plexus behind the eyeball using a capillary glass tube (about 1 ml per animal), and then left to stand for about one hour. It was centrifuged at 3500 rpm for 10 minutes to obtain the serum. ALT, AST, GGT and TBA indexes as well as the plasma concentration of the compound were determined using an AU480 automatic biochemical analysis system (BECKMAN COULTER). Liver was collected, weighed, and cutted into pieces. Normal saline was added (liver weight: normal saline=1:2), and the mixture was homogenized and freezed. The concentration of the compound in liver was determined using an ultra performance liquid chromatograph (Shimadzu, LC 30AD) and triple quadrupole mass spectrometer (AB, TQ5500). The plasma concentration and liver concentration of the compound of the present invention after 4 days of administration in the cholestasis rat induced by ANIT are shown in Table 3, Table 4 and Table 5 below.

[3] = liver, 3 mg/kg/day, 3 mg/kg/d, read-out: Liver concentration of the compound
[4] = liver, 10 mg/kg/day, 10 mg/kg/d, read-out: Liver concentration of the compound
[5] = plasma, 3 mg/kg/day, 3 mg/kg/d, read-out: Plasma concentration of the compound
[6] = plasma, 10 mg/kg/day, 10 mg/kg/d, read-out: Plasma concentration of the compound

| SMILES | solubility of the test sample, visually inspected [1] | concentration at 2 h [2, 3] | concentration at 4 h [2, 3] | concentration at 2 h [2, 4] | concentration at 4 h [2, 4] | Kp at 2 h ([2]; 3 mg/kg/day, 3 mg/kg/d) | Kp at 4 h ([2]; 3 mg/kg/day, 3 mg/kg/d) | Kp at 2 h ([2]; 10 mg/kg/day, 10 mg/kg/d) | Kp at 4 h ([2]; 10 mg/kg/day, 10 mg/kg/d) | concentration at 2 h [2, 5] | concentration at 4 h [2, 5] | concentration at 2 h [2, 6] | concentration at 4 h [2, 6] | Liver concentration of the compound ([2]; 10 mg/kg/d) |
| --- | --- | --- | --- | --- | --- | --- | --- | --- | --- | --- | --- | --- | --- | --- |
| O=C(O)c1ccc(-c2nnc(N3[C@@H]4CC[C@H]3C[C@@H](OCc3c(-c5c(Cl)cccc5Cl)noc3C3CC3)C4)o2)cc1 [Example 8, 4-(5-((1R,3r,5S)-3-((5-cyclopropyl-3-(2,6-dichlorophenyl)isoxazol-4-yl)methoxy)-8-azabicyclo[3.2.1]octan-8-yl)-1,3,4-oxadiazol-2-yl)benzoic acid] | completely dissolved without visible precipitation | 752 ± 419 ng/g | 1190 ± 162 ng/g | 986 ± 355 ng/g | 1190 ± 265 ng/g | 43.9 ± 65.2 | 61 ± 107 | 54.9 ± 37 | 105 ± 48.6 | 44.6 ± 36.9 ng/mL | 130 ± 120 ng/mL | 50.4 ± 74.4 ng/mL | 16.7 ± 16.4 ng/mL |  |
| O=C(O)c1ccc(-c2nnc(N3[C@@H]4CC[C@H]3C[C@@H](OCc3c(-c5c(Cl)cccc5Cl)noc3C3CC3)C4)o2)s1 [Example 11] |  | 1590 ng/g | 1520 ng/g | 5660 ng/g |  | 3.9 ± 1.4 | 6.2 ± 3.9 | 9.5 ± 9.1 | 15.5 ± 12.7 | 401 ± 98.4 ng/mL | 340 ± 253 ng/mL | 1160 ± 1040 ng/mL | 664 ± 739 ng/mL | 3,614.0 ± 1,961.3 ng/g |
| Cc1cc(C(=O)O)ccc1-c1nnc(N2[C@@H]3CC[C@H]2C[C@@H](OCc2c(-c4c(Cl)cccc4Cl)noc2C2CC2)C3)o1 [Example 14] |  | 1240 ng/g | 1150 ng/g | 7840 ng/g |  | 7.4 ± 1.5 | 7.1 ± 1.6 | 21 ± 4.4 | 19.8 ± 7 | 168 ± 111 ng/mL | 172 ± 75.3 ng/mL | 402 ± 238 ng/mL | 250 ± 72.4 ng/mL | 5,093.6 ± 2,197.5 ng/g |
| O=C(O)c1ccc(-c2nnc(N3[C@@H]4CC[C@H]3C[C@@H](OCc3c(-c5ccccc5OC(F)(F)F)noc3C3CC3)C4)o2)cc1 [Example 22, 4-(5-((1R,3r,5S)-3-((5-cyclopropyl-3-(2-(trifluoromethoxy)phenyl)isoxazol-4-yl)methoxy)-8-azabicyclo[3.2.1]octan-8-yl)-1,3,4-oxadiazol-2-yl)benzoic acid] |  | 3760 ng/g | 3090 ng/g | 12300 ng/g | 9660 ng/g | 16.1 ± 10.9 | 14.4 ± 6.5 | 14.2 ± 2.1 | 19.2 ± 6.9 | 440 ± 481 ng/mL | 278 ± 192 ng/mL | 903 ± 348 ng/mL | 567 ± 242 ng/mL |  |
